# Reference: ChEMBL document CHEMBL3797113, “Structural requirements of acylated Gly-l-Ala-d-Glu analogs for activation of the innate immune receptor NOD2” (Eur J Med Chem, 2016)
# Calls of active or inactive are those of the source. No cut-off for these calls is given here.
# Molecular target: T1, Nucleotide-binding oligomerization domain-containing protein 2 (Homo sapiens, UniProt Q9HC29)
# Test: Agonist activity at NOD2 receptor (unknown origin) expressed in HEK-Blue cells assessed as NF-kappaB transcriptional activity at 20 uM after 18 hrs by secreted embryonic alkaline phosphatase reporter gene assay relative to untreated control
# Format: cell-based
# Settings: not given
# T1 sequence (Q9HC29 whole entry, the tested form may be a part): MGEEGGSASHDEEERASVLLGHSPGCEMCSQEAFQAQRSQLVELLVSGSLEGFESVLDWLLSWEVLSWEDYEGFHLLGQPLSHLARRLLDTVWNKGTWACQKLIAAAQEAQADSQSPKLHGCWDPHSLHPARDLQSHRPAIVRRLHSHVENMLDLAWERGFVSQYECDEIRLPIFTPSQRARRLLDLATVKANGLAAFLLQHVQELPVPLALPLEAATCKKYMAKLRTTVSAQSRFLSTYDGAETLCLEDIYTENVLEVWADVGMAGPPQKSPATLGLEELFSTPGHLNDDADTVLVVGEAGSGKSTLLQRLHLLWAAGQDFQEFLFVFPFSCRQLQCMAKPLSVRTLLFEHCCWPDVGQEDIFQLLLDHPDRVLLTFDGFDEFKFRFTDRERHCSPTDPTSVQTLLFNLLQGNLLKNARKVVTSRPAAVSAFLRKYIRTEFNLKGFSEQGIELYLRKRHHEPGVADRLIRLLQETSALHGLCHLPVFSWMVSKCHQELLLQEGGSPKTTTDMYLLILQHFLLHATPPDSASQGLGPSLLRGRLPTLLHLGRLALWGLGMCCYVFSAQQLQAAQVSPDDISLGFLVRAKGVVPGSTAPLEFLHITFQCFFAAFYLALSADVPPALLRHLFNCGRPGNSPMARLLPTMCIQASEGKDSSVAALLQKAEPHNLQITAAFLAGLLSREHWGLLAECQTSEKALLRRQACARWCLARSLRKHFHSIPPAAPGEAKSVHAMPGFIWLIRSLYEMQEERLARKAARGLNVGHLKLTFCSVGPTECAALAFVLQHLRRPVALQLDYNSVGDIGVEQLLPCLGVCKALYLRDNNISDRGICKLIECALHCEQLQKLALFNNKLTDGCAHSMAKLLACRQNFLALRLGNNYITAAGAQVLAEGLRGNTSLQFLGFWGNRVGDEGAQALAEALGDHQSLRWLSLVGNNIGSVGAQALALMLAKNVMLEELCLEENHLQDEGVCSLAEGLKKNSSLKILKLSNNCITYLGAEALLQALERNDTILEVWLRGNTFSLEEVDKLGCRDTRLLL
Structure (SMILES),fold change (FC),Activity
CCOC(=O)CC[C@@H](NC(=O)[C@H](C)NC(=O)CNC(=O)c1cc2c(-c3ccccc3)cccc2[nH]1)C(=O)OCC,2.95,–
CCOC(=O)CC[C@@H](NC(=O)[C@H](C)NC(=O)CNC(=O)c1cc2cccc(-c3ccccc3)c2[nH]1)C(=O)OCC,6.51,–
Cc1nc(CC[C@@H](NC(=O)[C@H](C)NC(=O)CNC(=O)c2cc3ccccc3[nH]2)c2noc(C)n2)no1,–,inactive
CCOC(=O)CC[C@@H](NC(=O)[C@H](C)NC(=O)CNC(=O)c1cc2ccccc2n1Cc1ccc(F)cc1)C(=O)OCC,2.8,–
CCOC(=O)CC[C@@H](NC(=O)[C@H](C)NC(=O)CNC(=O)C1Cc2ccccc2N1)C(=O)OCC (some centres not stated),3.17,–
CCOC(=O)CC[C@@H](NC(=O)[C@H](C)NC(=O)CNC(=O)C1Cc2ccccc2N1C(=O)OC(C)(C)C)C(=O)OCC (some centres not stated),2.58,–
CCOC(=O)CC[C@@H](NC(=O)[C@H](C)NC(=O)CNC(=O)c1c[nH]c2ccccc12)C(=O)OCC,1.22,–
CCOC(=O)CC[C@@H](NC(=O)[C@H](C)NC(=O)CNC(=O)c1cc2cc(F)ccc2[nH]1)C(=O)OCC,3.02,–
C[C@H](NC(=O)CNC(=O)c1cc2ccccc2[nH]1)C(=O)N[C@H](CCC(=O)O)C(=O)O,2.1,–
CC(=O)N[C@H]1C(O)O[C@H](CO)[C@@H](O)[C@@H]1O[C@H](C)C(=O)N[C@@H](C)C(=O)N[C@H](CCC(=O)O)C(N)=O (some centres not stated) [MURAMYL DIPEPTIDE],11.5,–
CCOC(=O)CC[C@@H](NC(=O)[C@H](C)NC(=O)CNC(=O)c1ccc[nH]1)C(=O)OCC,1.08,–
CCOC(=O)CC[C@@H](NC(=O)[C@H](C)NC(=O)CNC(=O)C(=O)Nc1ccccc1)C(=O)OCC,1.15,–
CCOC(=O)CC[C@@H](NC(=O)[C@H](C)NC(=O)CCNC(=O)c1cc2ccccc2[nH]1)C(=O)OCC,1.41,–
CCOC(=O)CC[C@@H](NC(=O)[C@H](C)NC(=O)CNC(=O)c1cc2ccccc2[nH]1)C(=O)OCC,5.2,–
CCOC(=O)CC[C@@H](NC(=O)[C@H](C)NC(=O)CNC(=O)/C=C/c1ccccc1)C(=O)OCC,7.37,–
CCOC(=O)CC[C@@H](NC(=O)[C@H](C)NC(=O)CNC(=O)c1cc2cc(-c3ccccc3)ccc2[nH]1)C(=O)OCC,10.4,–
CCOC(=O)CC[C@@H](NC(=O)[C@H](C)NC(=O)CNC(=O)c1cc2ccc(-c3ccccc3)cc2[nH]1)C(=O)OCC,11.2,–
CCOC(=O)CC[C@@H](NC(=O)[C@H](C)NC(=O)CNC(=O)c1cc2cc(Br)ccc2[nH]1)C(=O)OCC,4.58,–
CCOC(=O)CC[C@@H](NC(=O)[C@H](C)NC(=O)CNC(=O)c1cc2ccccc2n1C)C(=O)OCC,2.14,–
C[C@H](NC(=O)CNC(=O)c1cc2ccccc2[nH]1)C(=O)N[C@H](CCC(=O)OCc1ccccc1)C(=O)OCc1ccccc1,8.82,–

# Molecular target: T2, Nucleotide-binding oligomerization domain-containing protein 1 (Homo sapiens) (UniProt Q9Y239)
# T2 sequence (whole entry): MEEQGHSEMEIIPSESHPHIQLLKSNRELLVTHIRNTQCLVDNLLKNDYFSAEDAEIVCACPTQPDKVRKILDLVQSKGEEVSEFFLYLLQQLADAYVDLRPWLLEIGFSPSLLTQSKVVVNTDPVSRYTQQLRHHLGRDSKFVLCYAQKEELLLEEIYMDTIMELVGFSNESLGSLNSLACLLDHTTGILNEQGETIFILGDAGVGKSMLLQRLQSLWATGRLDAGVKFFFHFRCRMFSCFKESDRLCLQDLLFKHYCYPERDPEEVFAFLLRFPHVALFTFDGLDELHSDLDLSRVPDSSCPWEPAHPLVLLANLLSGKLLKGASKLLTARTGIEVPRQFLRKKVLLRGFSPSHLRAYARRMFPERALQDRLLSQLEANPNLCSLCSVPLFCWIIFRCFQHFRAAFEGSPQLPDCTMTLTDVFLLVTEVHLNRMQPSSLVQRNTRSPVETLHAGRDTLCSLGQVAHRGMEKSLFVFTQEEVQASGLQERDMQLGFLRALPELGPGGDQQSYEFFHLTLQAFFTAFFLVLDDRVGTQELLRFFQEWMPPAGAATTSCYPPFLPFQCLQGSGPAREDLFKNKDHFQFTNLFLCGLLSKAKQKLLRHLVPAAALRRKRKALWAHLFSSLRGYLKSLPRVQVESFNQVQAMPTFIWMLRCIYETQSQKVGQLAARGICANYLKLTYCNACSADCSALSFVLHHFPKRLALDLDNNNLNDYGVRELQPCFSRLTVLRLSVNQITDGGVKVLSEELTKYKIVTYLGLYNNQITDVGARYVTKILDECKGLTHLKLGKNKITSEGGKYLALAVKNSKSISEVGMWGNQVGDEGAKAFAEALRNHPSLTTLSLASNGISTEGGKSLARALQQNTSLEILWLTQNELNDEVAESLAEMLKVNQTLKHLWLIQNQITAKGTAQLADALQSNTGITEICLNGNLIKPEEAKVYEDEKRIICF
# Test: Agonist activity at NOD1 receptor (unknown origin) expressed in HEK-Blue cells assessed as NF-kappaB transcriptional activity at 20 uM after 18 hrs by secreted embryonic alkaline phosphatase reporter gene assay
# Format: cell-based
# Settings: not given
row,Structure (SMILES),Activity
1,CCOC(=O)CC[C@@H](NC(=O)[C@H](C)NC(=O)CNC(=O)c1cc2c(-c3ccccc3)cccc2[nH]1)C(=O)OCC,inactive
2,CCOC(=O)CC[C@@H](NC(=O)[C@H](C)NC(=O)CNC(=O)c1cc2cccc(-c3ccccc3)c2[nH]1)C(=O)OCC,inactive
3,Cc1nc(CC[C@@H](NC(=O)[C@H](C)NC(=O)CNC(=O)c2cc3ccccc3[nH]2)c2noc(C)n2)no1,inactive
4,CCOC(=O)CC[C@@H](NC(=O)[C@H](C)NC(=O)CNC(=O)c1cc2ccccc2n1Cc1ccc(F)cc1)C(=O)OCC,inactive
5,CCOC(=O)CC[C@@H](NC(=O)[C@H](C)NC(=O)CNC(=O)C1Cc2ccccc2N1)C(=O)OCC (some centres not stated),inactive
6,CCOC(=O)CC[C@@H](NC(=O)[C@H](C)NC(=O)CNC(=O)C1Cc2ccccc2N1C(=O)OC(C)(C)C)C(=O)OCC (some centres not stated),inactive
7,CCOC(=O)CC[C@@H](NC(=O)[C@H](C)NC(=O)CNC(=O)c1c[nH]c2ccccc12)C(=O)OCC,inactive
8,CCOC(=O)CC[C@@H](NC(=O)[C@H](C)NC(=O)CNC(=O)c1cc2cc(F)ccc2[nH]1)C(=O)OCC,inactive
9,C[C@H](NC(=O)CNC(=O)c1cc2ccccc2[nH]1)C(=O)N[C@H](CCC(=O)O)C(=O)O,inactive
10,CC(=O)N[C@H]1C(O)O[C@H](CO)[C@@H](O)[C@@H]1O[C@H](C)C(=O)N[C@@H](C)C(=O)N[C@H](CCC(=O)O)C(N)=O (some centres not stated) [MURAMYL DIPEPTIDE],inactive
11,CCOC(=O)CC[C@@H](NC(=O)[C@H](C)NC(=O)CNC(=O)c1ccc[nH]1)C(=O)OCC,inactive
12,CCOC(=O)CC[C@@H](NC(=O)[C@H](C)NC(=O)CNC(=O)C(=O)Nc1ccccc1)C(=O)OCC,inactive
13,CCOC(=O)CC[C@@H](NC(=O)[C@H](C)NC(=O)CCNC(=O)c1cc2ccccc2[nH]1)C(=O)OCC,inactive
14,CCOC(=O)CC[C@@H](NC(=O)[C@H](C)NC(=O)CNC(=O)c1cc2ccccc2[nH]1)C(=O)OCC,inactive
15,CCOC(=O)CC[C@@H](NC(=O)[C@H](C)NC(=O)CNC(=O)/C=C/c1ccccc1)C(=O)OCC,inactive
16,CCOC(=O)CC[C@@H](NC(=O)[C@H](C)NC(=O)CNC(=O)c1cc2cc(-c3ccccc3)ccc2[nH]1)C(=O)OCC,inactive
17,CCOC(=O)CC[C@@H](NC(=O)[C@H](C)NC(=O)CNC(=O)c1cc2ccc(-c3ccccc3)cc2[nH]1)C(=O)OCC,inactive
18,CCOC(=O)CC[C@@H](NC(=O)[C@H](C)NC(=O)CNC(=O)c1cc2cc(Br)ccc2[nH]1)C(=O)OCC,inactive
19,CCOC(=O)CC[C@@H](NC(=O)[C@H](C)NC(=O)CNC(=O)c1cc2ccccc2n1C)C(=O)OCC,inactive
20,C[C@H](NC(=O)CNC(=O)c1cc2ccccc2[nH]1)C(=O)N[C@H](CCC(=O)OCc1ccccc1)C(=O)OCc1ccccc1,inactive

# Molecular target: T1, Nucleotide-binding oligomerization domain-containing protein 2
# Test: Agonist activity at NOD2 receptor (unknown origin) expressed in HEK-Blue cells assessed as NF-kappaB transcriptional activity after 18 hrs by secreted embryonic alkaline phosphatase reporter gene assay
# Format: cell-based
# Settings: not given
Structure (SMILES),Activity,EC50 [nM]
CC(=O)N[C@H]1C(O)O[C@H](CO)[C@@H](O)[C@@H]1O[C@H](C)C(=O)N[C@@H](C)C(=O)N[C@H](CCC(=O)O)C(N)=O (some centres not stated) [MURAMYL DIPEPTIDE],Dose-dependent effect,46
CCOC(=O)CC[C@@H](NC(=O)[C@H](C)NC(=O)CNC(=O)c1cc2ccc(-c3ccccc3)cc2[nH]1)C(=O)OCC,Dose-dependent effect,2880

# Test system: not listed separately
# Test: Cytotoxicity against NOD2 expressing HEK-Blue cells assessed as residual metabolic activity at 20 uM after 18 hrs by MTS assay relative to control
# Format: ADME, cell-based
# Settings: human, read-out: Activity
row,Structure (SMILES),"viability at 18 h, 20 µM [%]"
1,CCOC(=O)CC[C@@H](NC(=O)[C@H](C)NC(=O)CNC(=O)c1cc2c(-c3ccccc3)cccc2[nH]1)C(=O)OCC,≥ 80
2,CCOC(=O)CC[C@@H](NC(=O)[C@H](C)NC(=O)CNC(=O)c1cc2cccc(-c3ccccc3)c2[nH]1)C(=O)OCC,≥ 80
3,Cc1nc(CC[C@@H](NC(=O)[C@H](C)NC(=O)CNC(=O)c2cc3ccccc3[nH]2)c2noc(C)n2)no1,≥ 80
4,CCOC(=O)CC[C@@H](NC(=O)[C@H](C)NC(=O)CNC(=O)c1cc2ccccc2n1Cc1ccc(F)cc1)C(=O)OCC,≥ 80
5,CCOC(=O)CC[C@@H](NC(=O)[C@H](C)NC(=O)CNC(=O)C1Cc2ccccc2N1)C(=O)OCC (some centres not stated),≥ 80
6,CCOC(=O)CC[C@@H](NC(=O)[C@H](C)NC(=O)CNC(=O)C1Cc2ccccc2N1C(=O)OC(C)(C)C)C(=O)OCC (some centres not stated),≥ 80
7,CCOC(=O)CC[C@@H](NC(=O)[C@H](C)NC(=O)CNC(=O)c1c[nH]c2ccccc12)C(=O)OCC,≥ 80
8,CCOC(=O)CC[C@@H](NC(=O)[C@H](C)NC(=O)CNC(=O)c1cc2cc(F)ccc2[nH]1)C(=O)OCC,≥ 80
9,C[C@H](NC(=O)CNC(=O)c1cc2ccccc2[nH]1)C(=O)N[C@H](CCC(=O)O)C(=O)O,≥ 80
10,CCOC(=O)CC[C@@H](NC(=O)[C@H](C)NC(=O)CNC(=O)c1ccc[nH]1)C(=O)OCC,≥ 80
11,CCOC(=O)CC[C@@H](NC(=O)[C@H](C)NC(=O)CNC(=O)C(=O)Nc1ccccc1)C(=O)OCC,≥ 80
12,CCOC(=O)CC[C@@H](NC(=O)[C@H](C)NC(=O)CCNC(=O)c1cc2ccccc2[nH]1)C(=O)OCC,≥ 80
13,CCOC(=O)CC[C@@H](NC(=O)[C@H](C)NC(=O)CNC(=O)/C=C/c1ccccc1)C(=O)OCC,≥ 80
14,CCOC(=O)CC[C@@H](NC(=O)[C@H](C)NC(=O)CNC(=O)c1cc2cc(-c3ccccc3)ccc2[nH]1)C(=O)OCC,≥ 80
15,CCOC(=O)CC[C@@H](NC(=O)[C@H](C)NC(=O)CNC(=O)c1cc2ccc(-c3ccccc3)cc2[nH]1)C(=O)OCC,≥ 80
16,CCOC(=O)CC[C@@H](NC(=O)[C@H](C)NC(=O)CNC(=O)c1cc2cc(Br)ccc2[nH]1)C(=O)OCC,≥ 80
17,CCOC(=O)CC[C@@H](NC(=O)[C@H](C)NC(=O)CNC(=O)c1cc2ccccc2n1C)C(=O)OCC,≥ 80
18,C[C@H](NC(=O)CNC(=O)c1cc2ccccc2[nH]1)C(=O)N[C@H](CCC(=O)OCc1ccccc1)C(=O)OCc1ccccc1,≥ 80
